# Test results from ChEMBL document CHEMBL1201862, “PubChem BioAssay data set” (2004).
# The source made the active and inactive calls.
# Legend:
# [1] = molecular target: T1, Alkaline phosphatase, tissue-nonspecific isozyme (Homo sapiens, UniProt P05186); test: human TNAP enzyme inhibitors, SAR follow-up, biochemical, luminescent, dose response (AID 1056)
# T1 sequence (P05186 whole entry): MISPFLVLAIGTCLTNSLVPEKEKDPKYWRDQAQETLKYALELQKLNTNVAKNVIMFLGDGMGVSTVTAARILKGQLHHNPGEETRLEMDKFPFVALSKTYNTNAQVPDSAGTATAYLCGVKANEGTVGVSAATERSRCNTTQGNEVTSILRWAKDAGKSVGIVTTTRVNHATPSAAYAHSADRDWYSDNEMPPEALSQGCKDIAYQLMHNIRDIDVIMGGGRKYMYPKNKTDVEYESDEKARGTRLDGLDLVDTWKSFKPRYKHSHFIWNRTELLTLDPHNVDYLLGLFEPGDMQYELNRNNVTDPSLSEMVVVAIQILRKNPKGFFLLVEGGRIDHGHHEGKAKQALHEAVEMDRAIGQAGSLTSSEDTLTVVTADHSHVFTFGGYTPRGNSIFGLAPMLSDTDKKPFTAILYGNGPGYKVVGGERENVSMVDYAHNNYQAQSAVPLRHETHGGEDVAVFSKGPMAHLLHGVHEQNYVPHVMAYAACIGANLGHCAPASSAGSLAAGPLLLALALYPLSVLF
# [2] = molecular target: Glyceraldehyde-3-phosphate dehydrogenase (Homo sapiens, UniProt P04406)
# [3] = molecular target: T2, Ubiquitin-conjugating enzyme E2 N (Homo sapiens, UniProt P61088); format: functional;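 further: Dose-response confirmation in a TR-FRET assay detecting UBC13-driven polyubiquitin chain formation, inhibition measured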
# T2 sequence (P61088 whole entry): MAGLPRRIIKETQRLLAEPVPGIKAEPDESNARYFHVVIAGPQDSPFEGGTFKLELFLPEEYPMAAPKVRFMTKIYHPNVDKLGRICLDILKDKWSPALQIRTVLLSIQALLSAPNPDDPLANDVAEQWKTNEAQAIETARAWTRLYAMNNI
# BJ [4] = test: cytotoxicity toward Ras-transformed BJeLR fibroblasts, dose response, cell-based, alamar blue fluorescence, cherrypicked samples (AID 2631); format: functional; conditions: Homo sapiens;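 further: confirmatory dose-response assay in RAS-dependent BJ fibroblasts engineered with TERT, LT and ST, with cytotoxicity read by fluorescence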
# [5] = cytotoxicity in HEK-293T cells, dose response, cytotoxicity control for TCR NF-kB inhibitor project, luminescence, T-cell screen hits (AID 489026); format: functional, cell-based;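 further: cells exposed to compound about 14 hours before the viability readout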
# BJ [6] = test: cytotoxicity toward BJ-TERT fibroblasts, dose response, cell-based, RAS-independent, luminescence (AID 1933); format: functional; conditions: Homo sapiens
# [7] = cytotoxicity toward DRD oncogenic fibroblasts, dose response, cell-based, non-viral oncogenic, luminescence (AID 1934); format: functional; conditions: Homo sapiens
# BJ [8] = test: cells; format: functional, cell-based; conditions: Homo sapiens
# BJ [9] = test: cytotoxicity toward BJ-TERT-LT-ST fibroblasts, dose response, cell-based, RAS-independent, luminescence (AID 1935); format: functional; conditions: Homo sapiens;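 further: BJ fibroblasts immortalized with TERT plus LT and ST oncogenes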
# Escherichia coli = test: microbe, parasite or virus in culture
# HEK293 [10] = test: NOD1 signaling inhibitors, primary screen, cell-based, luminescence, uHTS (AID 1578); format: functional; conditions: Homo sapiens
# HEK293 [11] = test: NOD2 signaling inhibitors in MDP-stimulated cells, cell-based, uHTS, luminescence (AID 2001); format: functional; conditions: Homo sapiens
# HEK293 [12] = test: cells; format: functional, cell-based; conditions: Homo sapiens
# HEK293 [13] = test: cells; format: functional, cell-based; conditions: Homo sapiens; remark: listed apart in the source
# Genome polyprotein = Genome polyprotein (dengue virus type 2, UniProt P29990); test: Dengue-2 NS5 methyltransferase inhibitors, primary screen, biochemical, confirmation dose response (AID 588689); format: functional
# Leucine aminopeptidase = molecular target: T3, Leucine aminopeptidase (Plasmodium falciparum 3D7, UniProt Q8IL11); test: P. falciparum M17LAP inhibitors, primary screen, biochemical, fluorogenic H-Leu-NHMec substrate, 1536-well (AID 1619); format: functional
# T3 sequence (Q8IL11 whole entry): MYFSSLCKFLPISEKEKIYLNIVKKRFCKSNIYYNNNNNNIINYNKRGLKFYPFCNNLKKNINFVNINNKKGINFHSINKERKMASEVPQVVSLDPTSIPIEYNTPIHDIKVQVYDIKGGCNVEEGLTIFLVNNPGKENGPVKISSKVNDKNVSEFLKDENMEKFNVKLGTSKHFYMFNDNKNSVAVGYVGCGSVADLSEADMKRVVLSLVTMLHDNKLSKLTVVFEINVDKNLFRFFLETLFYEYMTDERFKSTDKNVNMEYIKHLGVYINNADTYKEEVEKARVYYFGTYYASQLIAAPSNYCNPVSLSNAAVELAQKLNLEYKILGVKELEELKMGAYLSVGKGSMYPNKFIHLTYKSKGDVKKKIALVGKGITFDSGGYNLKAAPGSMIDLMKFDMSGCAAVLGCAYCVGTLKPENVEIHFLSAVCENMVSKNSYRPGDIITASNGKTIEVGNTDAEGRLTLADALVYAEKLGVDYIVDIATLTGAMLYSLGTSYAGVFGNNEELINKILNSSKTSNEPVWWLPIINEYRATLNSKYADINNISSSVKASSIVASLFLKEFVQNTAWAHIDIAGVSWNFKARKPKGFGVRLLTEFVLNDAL
# [14] = HEp-2 cell cytotoxicity, dose response, cytotoxicity control for RSV inhibitor project, HTS (AID 2410); format: functional; conditions: human respiratory syncytial virus
# Coagulation factor XII = molecular target: T4, Coagulation factor XII (Homo sapiens, UniProt P00748); format: functional;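 further: activated factor XIIa alpha cleaving a fluorogenic AMC peptide substrate; inhibitor potency from loss of enzyme activity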
# T4 sequence (P00748 whole entry): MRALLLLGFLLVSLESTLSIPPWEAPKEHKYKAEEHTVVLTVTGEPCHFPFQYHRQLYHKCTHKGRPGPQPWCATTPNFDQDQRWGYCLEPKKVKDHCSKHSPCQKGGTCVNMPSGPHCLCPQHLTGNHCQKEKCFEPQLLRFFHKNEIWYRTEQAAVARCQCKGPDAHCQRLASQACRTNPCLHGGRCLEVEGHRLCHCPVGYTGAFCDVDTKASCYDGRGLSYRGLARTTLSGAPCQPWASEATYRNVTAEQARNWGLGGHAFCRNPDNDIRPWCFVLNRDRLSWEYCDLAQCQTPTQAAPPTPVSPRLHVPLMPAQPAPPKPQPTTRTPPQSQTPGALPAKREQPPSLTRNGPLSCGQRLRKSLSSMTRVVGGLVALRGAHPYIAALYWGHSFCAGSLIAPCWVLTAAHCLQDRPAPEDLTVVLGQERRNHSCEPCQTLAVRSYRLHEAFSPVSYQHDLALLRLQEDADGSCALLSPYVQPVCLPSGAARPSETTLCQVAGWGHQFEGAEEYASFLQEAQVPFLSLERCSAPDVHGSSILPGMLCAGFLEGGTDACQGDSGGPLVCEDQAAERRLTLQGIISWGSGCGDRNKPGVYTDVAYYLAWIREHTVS
# [15] = molecular target: T5, High affinity choline transporter 1 (Homo sapiens, UniProt Q9GZV3); test: CHT inhibitors, dose response, cell-based, 5-point CRC, membrane potential dye (AID 504840); format: functional
# T5 sequence (Q9GZV3 whole entry): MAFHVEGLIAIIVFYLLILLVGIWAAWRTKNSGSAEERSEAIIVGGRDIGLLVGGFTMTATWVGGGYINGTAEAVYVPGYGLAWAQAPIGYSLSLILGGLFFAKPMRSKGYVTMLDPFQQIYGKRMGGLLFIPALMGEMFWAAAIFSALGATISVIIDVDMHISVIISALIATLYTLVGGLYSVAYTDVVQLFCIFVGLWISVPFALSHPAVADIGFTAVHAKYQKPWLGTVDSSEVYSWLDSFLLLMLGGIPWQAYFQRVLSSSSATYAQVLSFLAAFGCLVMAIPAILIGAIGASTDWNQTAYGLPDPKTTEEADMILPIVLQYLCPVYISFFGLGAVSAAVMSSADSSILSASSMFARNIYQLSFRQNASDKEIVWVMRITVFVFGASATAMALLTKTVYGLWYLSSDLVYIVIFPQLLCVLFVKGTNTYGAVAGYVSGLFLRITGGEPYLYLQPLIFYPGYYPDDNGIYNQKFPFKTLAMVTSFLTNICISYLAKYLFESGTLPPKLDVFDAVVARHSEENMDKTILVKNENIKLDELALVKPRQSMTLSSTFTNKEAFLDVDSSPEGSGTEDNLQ
# [16] = molecular target: T6, Calpain-2 catalytic subunit (Sus scrofa, UniProt P43367); test: pig calpain II inhibitor potency, dose response, biochemical, fluorogenic peptide substrate (AID 1420); format: functional
# T6 sequence (P43367 whole entry): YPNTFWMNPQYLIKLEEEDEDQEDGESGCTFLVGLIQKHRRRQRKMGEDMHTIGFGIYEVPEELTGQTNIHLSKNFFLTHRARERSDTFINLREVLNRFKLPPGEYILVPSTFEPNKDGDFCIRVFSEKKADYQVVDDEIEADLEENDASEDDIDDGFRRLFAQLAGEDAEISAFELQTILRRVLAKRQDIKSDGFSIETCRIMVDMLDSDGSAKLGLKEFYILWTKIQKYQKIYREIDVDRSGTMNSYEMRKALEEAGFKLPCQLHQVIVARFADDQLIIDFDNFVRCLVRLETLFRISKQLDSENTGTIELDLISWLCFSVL
# [17] = molecular target: T7, DNA repair and recombination protein RAD54-like (Homo sapiens, UniProt Q92698); test: inhibitors of human RAD54 branch migration, confirmation, biochemical, fluorescence, cherry-picked samples, dose series (AID 651657); format: functional
# T7 sequence (Q92698 whole entry): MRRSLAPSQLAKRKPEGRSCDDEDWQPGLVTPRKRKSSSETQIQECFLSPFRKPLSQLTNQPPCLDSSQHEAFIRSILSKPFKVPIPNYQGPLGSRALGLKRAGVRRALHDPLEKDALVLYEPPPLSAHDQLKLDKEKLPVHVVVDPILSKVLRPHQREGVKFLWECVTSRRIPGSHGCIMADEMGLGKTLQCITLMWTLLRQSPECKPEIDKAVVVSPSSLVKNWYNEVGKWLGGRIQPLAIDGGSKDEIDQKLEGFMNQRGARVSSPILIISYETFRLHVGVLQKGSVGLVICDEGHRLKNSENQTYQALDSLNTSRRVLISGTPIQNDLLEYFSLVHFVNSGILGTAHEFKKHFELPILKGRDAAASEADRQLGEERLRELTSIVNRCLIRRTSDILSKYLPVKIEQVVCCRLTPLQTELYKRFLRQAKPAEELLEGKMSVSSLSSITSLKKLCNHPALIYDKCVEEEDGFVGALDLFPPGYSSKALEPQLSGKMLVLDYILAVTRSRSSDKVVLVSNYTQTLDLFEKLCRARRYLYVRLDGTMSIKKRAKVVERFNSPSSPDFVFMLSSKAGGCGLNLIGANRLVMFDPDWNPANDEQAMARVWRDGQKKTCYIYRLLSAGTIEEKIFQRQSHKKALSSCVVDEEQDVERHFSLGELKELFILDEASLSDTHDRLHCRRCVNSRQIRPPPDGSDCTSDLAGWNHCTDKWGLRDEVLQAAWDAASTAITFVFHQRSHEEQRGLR
# Nonstructural protein 1 = Nonstructural protein 1 (Influenza A virus, UniProt Q194T2); format: functional, Influenza A virus (A/California/07/2009(H1N1))
# Cytochrome P450 3A4 = Cytochrome P450 3A4 (Homo sapiens, UniProt P08684);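 further: CYP3A4 tested as one member of a cytochrome P450 panel screen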
# Cytochrome P450 3A4, sequence (P08684 whole entry): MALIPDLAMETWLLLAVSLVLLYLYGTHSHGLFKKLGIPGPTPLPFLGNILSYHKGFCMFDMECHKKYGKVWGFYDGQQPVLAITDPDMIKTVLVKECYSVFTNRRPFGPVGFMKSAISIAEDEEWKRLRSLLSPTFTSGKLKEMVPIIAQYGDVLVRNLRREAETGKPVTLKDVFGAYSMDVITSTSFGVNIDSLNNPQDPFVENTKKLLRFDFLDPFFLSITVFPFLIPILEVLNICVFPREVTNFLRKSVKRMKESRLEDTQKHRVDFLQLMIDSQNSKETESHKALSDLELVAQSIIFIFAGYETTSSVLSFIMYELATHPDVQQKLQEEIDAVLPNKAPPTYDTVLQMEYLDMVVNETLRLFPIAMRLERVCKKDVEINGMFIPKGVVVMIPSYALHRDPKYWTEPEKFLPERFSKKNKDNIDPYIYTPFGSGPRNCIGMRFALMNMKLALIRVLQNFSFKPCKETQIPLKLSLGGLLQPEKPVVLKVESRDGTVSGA
# Glyceraldehyde-3-phosphate dehydrogenase, sequence (P04406 whole entry): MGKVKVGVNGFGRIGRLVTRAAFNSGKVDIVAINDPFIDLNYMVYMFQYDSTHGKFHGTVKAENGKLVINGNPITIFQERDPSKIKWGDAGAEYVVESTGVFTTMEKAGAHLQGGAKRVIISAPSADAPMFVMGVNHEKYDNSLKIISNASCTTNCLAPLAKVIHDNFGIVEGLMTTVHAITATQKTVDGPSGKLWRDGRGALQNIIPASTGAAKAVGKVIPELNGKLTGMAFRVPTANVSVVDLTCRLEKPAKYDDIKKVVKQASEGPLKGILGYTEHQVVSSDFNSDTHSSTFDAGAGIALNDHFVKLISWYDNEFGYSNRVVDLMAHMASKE
# Genome polyprotein, sequence (P29990 2492-3391 limits assumed): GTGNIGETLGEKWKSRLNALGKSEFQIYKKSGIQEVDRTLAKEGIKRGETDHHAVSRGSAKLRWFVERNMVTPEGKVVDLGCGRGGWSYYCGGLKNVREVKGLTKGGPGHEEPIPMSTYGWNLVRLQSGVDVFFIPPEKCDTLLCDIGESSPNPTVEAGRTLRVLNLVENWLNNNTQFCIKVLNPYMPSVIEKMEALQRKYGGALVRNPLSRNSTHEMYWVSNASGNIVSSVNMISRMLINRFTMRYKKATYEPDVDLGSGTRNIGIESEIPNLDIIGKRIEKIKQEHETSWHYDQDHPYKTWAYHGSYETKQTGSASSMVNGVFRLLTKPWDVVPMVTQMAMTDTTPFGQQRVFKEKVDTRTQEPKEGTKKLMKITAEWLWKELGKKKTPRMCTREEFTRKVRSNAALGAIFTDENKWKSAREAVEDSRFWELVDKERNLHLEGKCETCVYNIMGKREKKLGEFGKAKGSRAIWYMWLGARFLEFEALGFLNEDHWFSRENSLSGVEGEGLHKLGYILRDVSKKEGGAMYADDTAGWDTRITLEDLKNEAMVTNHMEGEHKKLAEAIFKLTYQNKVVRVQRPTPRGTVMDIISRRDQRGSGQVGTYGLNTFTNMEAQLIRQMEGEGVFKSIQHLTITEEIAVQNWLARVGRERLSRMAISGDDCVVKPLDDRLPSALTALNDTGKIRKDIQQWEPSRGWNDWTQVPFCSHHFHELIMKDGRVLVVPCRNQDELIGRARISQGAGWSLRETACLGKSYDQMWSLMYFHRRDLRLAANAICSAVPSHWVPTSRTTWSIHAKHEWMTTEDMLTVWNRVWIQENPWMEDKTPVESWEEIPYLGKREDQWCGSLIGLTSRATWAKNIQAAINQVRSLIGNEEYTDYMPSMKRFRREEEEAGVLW
# Nonstructural protein 1, sequence (Q194T2 whole entry): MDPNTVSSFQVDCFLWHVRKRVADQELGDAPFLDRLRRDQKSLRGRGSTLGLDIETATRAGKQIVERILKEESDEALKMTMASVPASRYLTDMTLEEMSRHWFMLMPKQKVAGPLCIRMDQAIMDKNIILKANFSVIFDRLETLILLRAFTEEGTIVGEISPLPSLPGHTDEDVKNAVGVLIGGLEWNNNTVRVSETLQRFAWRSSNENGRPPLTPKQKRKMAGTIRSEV
smiles,measurement,setting,value
CCOC(=O)c1nnc(-c2ccccc2)o1,IC50,[1],> 100 µM (inactive)
same,IC50,[2],> 100 µM (not active)
Cc1ccc2c(c1)C1CN(C)CCC1N2C(=O)CCCN1C(=O)c2cccc3cccc(c23)C1=O (centres undefined),IC50,[3],> 20 µM (inactive)
O=C(Nc1ccc([N+](=O)[O-])cc1)Nc1ccon1,EC50,BJ [4],< 0.104 µM (active)
same,IC50,[5],> 80 µM (inactive)
same,EC50,BJ [6],1.57 µM (active)
same,EC50,[7],1.21 µM (active)
same,EC50,BJ [8],12.1 µM (active)
same,EC50,BJ [9],4.66 µM (active)
CCNC(=O)OCC12CC3CC(CC(C3)C1)C2,AC50,Escherichia coli,33.5 µM (active)
COc1ccc(NC(=O)Nc2nnc(-c3ccncc3)s2)cc1,EC50,HEK293 [10],5.39 µM (active)
same,IC50,HEK293 [11],6.01 µM (active)
same,IC50,HEK293 [12],> 20 µM (inactive)
same,IC50,HEK293 [13],5.85 µM (active)
O=C1/C(=C/c2ccc(C(=O)O)cc2)CCC/C1=C\c1ccc(C(=O)O)cc1,IC50,Genome polyprotein,> 100 µM (active)
same,IC50,Leucine aminopeptidase,62.7 µM (active)
CCn1c2ccc(C)cc2c2nnc(SCCN3CCOCC3)nc21,AC50,Escherichia coli,89.7 µM (active)
Cc1c(NC(=S)NC(=O)c2ccc(-c3ccc(Cl)cc3)o2)cccc1C(=O)O,CC50,[14],35.4 µM (active)
same,IC50,Leucine aminopeptidase,29.7 µM (active)
Cc1ccc(NC(=O)NCc2ccc3c(c2)OCO3)cc1,IC50,Coagulation factor XII,> 50 µM (inactive)
O=C(O)C1CCN(c2nc(-c3ccccc3)nc3c2oc2ccccc23)CC1,IC50,[15],9.12 µM (active)
same,IC50,Leucine aminopeptidase,30.1 µM (active)
COc1ccc(OC)c(CNc2ccc([N+](=O)[O-])cc2C)c1,IC50,Coagulation factor XII,> 50 µM (inactive)
same,IC50,[16],8.98 µM (not active)
COc1ccccc1NS(=O)(=O)c1cc(NC(C)=O)ccc1N1CCCCC1,AC50,Escherichia coli,30.4 µM (active)
CN(C(=O)COC(=O)c1cc(-c2ccc(Br)cc2)[nH]n1)C1CCCCC1,IC50,[1],> 100 µM (inactive)
same,IC50,[2],> 100 µM (not active)
COc1ccc(NC(=O)CN2C(=O)CSC(C)C2=O)cc1 (centres undefined),IC50,Leucine aminopeptidase,3.83 µM (active)
CCc1nc2ccccc2c(C(=O)OCc2nc3ccccc3c(=O)[nH]2)c1C,IC50,[3],> 20 µM (inactive)
O=C(N[C@H](C(=O)O)c1ccccc1)C1CCC(Cn2nnc3ccccc3c2=O)CC1 (some centres undefined),IC50,Coagulation factor XII,> 50 µM (inactive)
c1cncc(-n2cnnn2)c1,IC50,[1],> 100 µM (inactive)
same,IC50,[2],> 100 µM (not active)
C=CC(=O)Nc1ccc(N(C)c2ccnc(Nc3ccc(N4CCN(C)CC4)cc3)n2)cc1,AC50,[17],21 µM (active)
same,IC50,Nonstructural protein 1,25.5 µM (active)
same,IC50,[3],> 20 µM (inactive)
COc1ccccc1N1CCN(C/C(O)=C(\C#N)c2nc(-c3ccccc3)cs2)CC1,IC50,Coagulation factor XII,> 50 µM (inactive)
CC(C)/N=C/c1c(O)[nH]c2ccccc12,IC50,Coagulation factor XII,> 50 µM (inactive)
Cn1c(=O)[nH]c2ncn(C)c2c1=O [PARAXANTHINE],AC50,Cytochrome P450 3A4,inconclusive
same,AC50,Escherichia coli,23.3 µM (active)
